Reference: patent publication US10338037B2, “Compounds and conjugates for identifying and separating post-translationally modified analytes” (UVic Industry Partnerships Inc., priority 2015, dated 2019)

Tests used:
Type in all cases: binding
H3K9me3 peptide = biological target: T1, H3K9me3 peptide (Homo sapiens, UniProt P68431); test: fluorescence indicator displacement assay, solution-phase affinity for H3K9me3 peptide; conditions: 10 mM phosphate buffer at pH 7.4, average of triplicate determinations, read-out: Solution-phase equilibrium dissociation constant (Kd), H3K9me3
T1 construct: H3 1-12=H2N-ARTKQTARKSTGY-COOH; made in house; host or cells: chemical solid-phase peptide synthesis
Description: (§1) In this example, the activity of various compound embodiments described herein were evaluated. A calixarene parent compound and compounds 502 and 404 were evaluated. Compound 502 was used has an upper-rim aryl group attached via sulfonamide linkage, and also includes a distal carboxy group for conjugation to solid-phase supports. The solution-phase affinities of a calixarene parent compound, and compounds 502 and 404 were determined for various methyllysine and methylarginine containing peptides by fluorescence indicator displacement assay (Table 1).
(§2) All values were determined in 10 mM phosphate buffer at pH 7.4 and are averages of triplicate determinations by an indicator displacement assay.

[1] = biological target: T2, H3K4 peptide (unmethylated) (Homo sapiens, UniProt P68431); test: fluorescence indicator displacement assay, solution-phase affinity for H3K4 peptide; conditions: for Kd: 10 mM phosphate buffer at pH 7.4, average of triplicate determinations, indicator displacement assay, read-out: Solution-phase equilibrium dissociation constant (Kd), H3K4; for binding to unmethylated controls (in words): solution phase, relative to methylated peptides
T2 construct: H3 1-7=H2N-ARTKQTAY-COOH; made in house; host or cells: chemical solid-phase peptide synthesis
Description: as §1, §2

H3R2me2s peptide = biological target: T3, H3R2me2s peptide (Homo sapiens, UniProt P68431); test: fluorescence indicator displacement assay, solution-phase affinity for H3R2me2s peptide; conditions: 10 mM phosphate buffer at pH 7.4, average of triplicate determinations, read-out: Solution-phase equilibrium dissociation constant (Kd), H3R2me2s
T3 construct: H3 1-7=H2N-ARTKQTAY-COOH; made in house; host or cells: chemical solid-phase peptide synthesis
Description: as §1, §2

H3K4me peptide = biological target: T4, H3K4me peptide (Homo sapiens, UniProt P68431); test: fluorescence indicator displacement assay, solution-phase affinity for H3K4me peptide; conditions: 10 mM phosphate buffer at pH 7.4, average of triplicate determinations, read-out: Solution-phase equilibrium dissociation constant (Kd), H3K4me
T4 construct: H3 1-7=H2N-ARTKQTAY-COOH; made in house; host or cells: chemical solid-phase peptide synthesis
Description: as §1, §2

H3K4me3 peptide = biological target: T5, H3K4me3 peptide; test: fluorescence indicator displacement assay, solution-phase affinity for H3K4me3 peptide
T5 construct: other: solution phase, indicator displacement assay; fused on or other part: C-terminal Tyr added to read concentration by A280; trimethyl-lysine (a PTM)
Description: as §1, §2

H3R2me2a peptide = biological target: T6, H3R2me2a peptide (Homo sapiens, UniProt P68431); test: fluorescence indicator displacement assay, solution-phase affinity for H3R2me2a peptide; conditions: for Kd: 10 mM phosphate buffer at pH 7.4, average of triplicate determinations, read-out: Solution-phase equilibrium dissociation constant (Kd), H3R2me2a
T6 construct: H3 1-7=H2N-ARTKQTAY-COOH; made in house; host or cells: chemical solid-phase peptide synthesis
Description: as §1, §2

H3K4me2 peptide = biological target: T7, H3K4me2 peptide (Homo sapiens, UniProt P68431); test: fluorescence indicator displacement assay, solution-phase affinity for H3K4me2 peptide; conditions: for Kd: 10 mM phosphate buffer at pH 7.4, average of triplicate determinations, read-out: Solution-phase equilibrium dissociation constant (Kd), H3K4me2; for affinity for Kme2-containing peptides (in words): solution phase
T7 construct: H3 1-7=H2N-ARTKQTAY-COOH; made in house; host or cells: chemical solid-phase peptide synthesis
Description: as §1, §2

H3K4ac peptide = biological target: T8, H3K4ac peptide (Homo sapiens, UniProt P68431); test: fluorescence indicator displacement assay, solution-phase affinity for H3K4ac peptide; conditions: for Kd: 10 mM phosphate buffer at pH 7.4, average of triplicate determinations, indicator displacement assay, read-out: Solution-phase equilibrium dissociation constant (Kd), H3K4ac; for binding to Kac containing peptides (in words): solution phase, relative to methylated peptides
T8 construct: H3 1-7=H2N-ARTKQTAY-COOH; made in house; host or cells: chemical solid-phase peptide synthesis
Description: as §1, §2

Kd (H3K9me3 peptide) [µM] | Kd [1] [µM] | binding to unmethylated controls (in words) [1] | Kd (H3R2me2s peptide) [µM] | Kd (H3K4me peptide) [µM] | affinity for Kme3-containing peptides (in words) (H3K4me3 peptide) | Kd (H3R2me2a peptide) [µM] | Kd (H3K4me2 peptide) [µM] | affinity for Kme2-containing peptides (in words) (H3K4me2 peptide) | Kd (H3K4ac peptide) [µM] | binding to Kac containing peptides (in words) (H3K4ac peptide) | affinity for aDMA-containing peptides (in words) (H3R2me2a peptide; solution phase) | Compound
1 | 85.5 | weaker binding | 6.62 | 2.3 | sub-micromolar | 1 | 0.1 | sub-micromolar | > 1000 | weaker binding |  | O=C(O)Cc1ccc(-c2cc3c(O)c(c2)Cc2cc(S(=O)(=O)O)cc(c2O)Cc2cc(S(=O)(=O)O)cc(c2O)Cc2cc(S(=O)(=O)O)cc(c2O)C3)cc1 [Compound 404, 5-(4-carboxymethylphenyl)-25, 26, 27, 28-tetrahydroxy-11-17-23-trisulfonatocalix[4]arene]
0.5 | 3.8 | weaker binding | 2.6 | 1.3 | sub-micromolar | 0.6 | 0.4 | sub-micromolar | 7.6 | weaker binding | sub-micromolar | O=C(O)c1ccc(S(=O)(=O)Nc2cc3c(O)c(c2)Cc2cc(S(=O)(=O)O)cc(c2O)Cc2cc(S(=O)(=O)O)cc(c2O)Cc2cc(S(=O)(=O)O)cc(c2O)C3)cc1 [Compound 502, 5-(4-carboxyphenyl)sulfonamido-25, 26, 27, 28-tetrahydroxy-11-17-23-trisulfonatocalix[4]arene]
